The values that follow are results of earlier work, collected in publication PMC3350394, “Kinetic analysis and test-retest variability of the radioligand [^11C](R)-PK11195 binding to TSPO in the human brain - a PET study in control subjects” (EJNMMI Research, 2012).

Data set [1] concerns the target dopamine D2/3 receptor. Also noted: method as in PMID 2528555, PMID 8122313. The following applies: approximately; read-out: affinity; cited from earlier work.
Details of data set [2]: method as in PMID 2528555. The following applies: cited from earlier work.
On the set-up of data set [3]: method as in PMID 2528555. The following applies: cited from earlier work. This is another data set of the same source.
The conditions of data set [4]: same experimental setting and analytical approach; cited from earlier work.
Data set [5] concerns TSPO. Also noted: method as in PMID 19948230. The following applies: up; cited from earlier work.
Data set [6] deals with TSPO. Also noted: method as in PMID 15103694. The following applies: unlabelled displacer; cited from earlier work.
In data set [7] the test system is human serum albumin (HSA). The arrangement: method as in PMID 12623120. The following applies: relative to AGP; cited from earlier work.
The subject of data set [8] is alfa1-acid glycoprotein (AGP). The arrangement: method as in PMID 12623120. The following applies: cited from earlier work.

For `CCN1CCC[C@H]1CNC(=O)c1c(O)c(Cl)cc(Cl)c1OC` (racemic) [[^11C]raclopride], in data set [1], the Kd is 1 to 3 nM.
As for `CCN1CCC[C@H]1CNC(=O)c1c(O)c(Cl)cc(Cl)c1O[11CH3]` (racemic) [[^11C]raclopride], the plasma protein binding in data set [2] is 96%. Moreover, in data set [3], the first pass extraction entry was “about 20%”. Also, in data set [4], the K1 was 0.16.
As to `COc1ccccc1CN(C(C)=O)c1cnccc1Oc1ccccc1` [PBR28], the “displacement of [11C](R)-PK11195 binding” value in data set [5] is on record as 40% to 60.
As to `CCC(C)N(C)C(=O)c1cc2ccccc2c(-c2ccccc2Cl)n1` (stereo not drawn) [PK11195, 1-(2-chlorophenyl)-N-methyl-N-(1-methylpropyl)-3-isoquinoline carboxamide], the “displacement of the total [11C]DAA1106 binding” value in data set [6] is on record as “about 70%”.
For `CCC(C)N(C)C(=O)c1cc2ccccc2c(-c2ccccc2Cl)n1` (stereo not drawn) [[^3 H]PK11195, 1-(2-chlorophenyl)-N-methyl-N-(1-methylpropyl)-3-isoquinoline carboxamide], in data set [7], the “binding to HSA” value is on record as “to a lesser extent”. In addition, the “binding to AGP” value in data set [8] is “high affinity”.
On to `CCN1CCC[C@H]1CNC(=O)c1cc(Br)cc(OC)c1O[11CH3]` [[^11C]FLB-457], for which, in data set [4], the K1 was 0.42.
